# In patent US20190154879A1, “Silicone Hydrogel Contact Lenses Having Improved Lubricity” (CooperVision International Holding Company, LP, priority 2016, published 2019):
# Experiments:
# rabbits = test: Cytotoxicity by ocular irritation study (ISO 10993-10); type: in vivo; details: 0.035% in PBS, ocular irritation study in rabbits (ISO 10993-10)
# Excerpt: An advantage of the surfactants used herein is that they are non-cytotoxic at concentrations effective at reducing surface concentration of silicon, and thus may be left in the final packaged contact lens. In contrast, other methods for reducing surface concentration of silicone of silicone hydrogel contact lenses employ toxic compounds that must be extracted from the contact lens prior to final packaging (see e.g. US Pat. Appin. Publ. No. 2014/0275434). Thus, the prior art method requires additional processing steps in order to provide an ophthalmically-acceptable contact lens, which add to manufacturing costs. Further, there is a desire to minimize the use of hazardous chemicals in manufacturing sites, which is another advantage of the present invention compared to the prior art. In specific examples, the concentration of the surfactant in the packaging solution prior to contact with the contact lens is from about 0.01 wt. % or 0.02 wt. %, up to about 0.05 wt. %, 0.075 wt. %, or 0.1 wt. %. Throughout this disclosure, when a series of lower limit ranges and a series of upper limit ranges are provided, all combinations of the provided ranges are contemplated as if each combination were specifically listed. […]
# Because of the low CoF values obtained for both lenses, tyloxapol and RLM-100 were evaluated further for use as a possible packaging solution additive.
# [1] = Hydrophilic-lipophilic balance (HLB) value; type: physicochemical; details: calculated as twenty times molecular weight of hydrophilic portion divided by total molecular weight
substance,measurement,setting,value
tyloxapol,cytotoxicity,rabbits,non-cytotoxic
same,HLB value,[1],about 13
